Measured values reported in patent publication US20090023667A1 (priority 2005, published 2009).
Read-outs that look alike come from different tables or passages of the source.

Legend:
Type in all cases: in vivo
[1] = system: Pyricularia oryzae; assay: whole plant or invertebrate
[2] = system: Pyricularia oryzae; conditions: rice blast, nursery box application of granule
[3] = system: Pyricularia oryzae
[4] = system: Rhizoctonia solani; assay: Test Example 4: control test on paddy rice sheath blight, spraying
Procedure: A compound solution of a prescribed concentration was sprayed on three 1/5000a rice pots (cultivar: Koshihikari; 4 leaf stage). After one day from the spraying, Rhizoctonia solani cultured on a rice chaff/bran medium was inoculated on the basal of the rice plant. After 10 days from the inoculation, the extended lesion length of sheath blight of the whole stem was examined. The control value was calculated according to the following equation (3 replications).
(§1) Control Value=(1−average lesion length per a stem in the treated plot/average lesion length per a stem in the untreated plot)×100

[5] = system: Pyricularia oryzae; remark: listed apart in the source
[6] = system: Rhizoctonia solani; assay: Test Example 5: control test on paddy rice sheath blight, submerged application; conditions: submerged application of granule
Procedure: (§2) After 14 days from the treatment, Rhizoctonia solani cultured on a rice chaff/bran medium was inoculated on the basal of the rice plant. After 10 days from the inoculation, the extended lesion length of sheath blight of the whole stem was examined. The control value was calculated according to the following equation (3 replications).
as §1

[7] = system: Rhizoctonia solani; assay: Test Example 6: control test on paddy rice sheath blight, nursery box application; conditions: nursery box application of granule
Procedure: as §2, with “30” for “14”
as §1

[8] = Pyricularia oryzae, 168 h, read-out: Control value
[9] = rice blast, sprayed at 60 ppm active ingredient, lesions after 7 days

CC(C)CC(C)c1sccc1NC(=O)c1cn(C)nc1C(F)(F)F (racemic) [Penthiopyrad, (RS)—N-[2-(1,3-dimethylbutyl)thiophene-3-yl]-1-methyl-3-trifluoromethyl-1H-pirazole-4-carboxamide, reference compound]
pest or weed control at 200 ppm [1, 8]: 95%

C/C(=N/Nc1nc(C)cc(C)n1)c1ccccc1C [Ferimzone, reference compound]
pest or weed control at 300 ppm [1, 8]: 98%

CSC(=O)c1cccc2nnsc12 [Acibenzolar-S-methyl]
Control value ([2]; 1 gai/box): 96

Cc1ccc(C(=O)NC(CNC(=O)OCC(Cl)(Cl)Cl)C(C)C)cc1 (stereo not drawn) [Compound 7, N-(2,2,2-trichloroethyloxycarbonyl)-N′-(4-methylbenzoyl)-3-methyl-1,2-butanediamine]
Effect (class of control value) [3, 9]: A (Not less than 80%)

Cc1c(Cl)cc(-c2ccc(=O)[nH]n2)cc1Cl [Diclomezine, reference compound]
Control value ([4]; 20 ppm): 95

Cc1ccc(C(=O)NCC(NC(=O)OC(CF)CF)C(C)C)cc1 (stereo not drawn) [Compound 9]
Effect (class of control value) ([3]; in vivo): A (key: A: Not less than 80%; B: Not less than 50% to less than 80%; C: Less than 50%)

OCC1=C[C@H](N[C@H]2C[C@H](CO)[C@@H](O[C@@H]3O[C@H](CO)[C@@H](O)[C@H](O)[C@H]3O)[C@H](O)[C@H]2O)[C@H](O)[C@@H](O)[C@@H]1O [Validamycin, reference compound]
Control value ([4]; 60 ppm): 94

Cc1ccccc1C(=O)Nc1cccc(OC(C)C)c1 [Mepronil, reference compound]
Control value ([4]; 750 ppm): 94

CCOP(=O)(Sc1ccccc1)Sc1ccccc1 [EDDP, reference compound]
Control value ([1]; 300 ppm): 97

Cc1ccc(C(=O)NCC(NC(=O)OC(CBr)CBr)C(C)C)cc1 (stereo not drawn) [Compound 11]
Effect (class of control value) ([3]; in vivo): B (key: A: Not less than 80%; B: Not less than 50% to less than 80%; C: Less than 50%)

CC(C)C(CNC(=O)c1nc2ccc(F)cc2s1)NC(=O)OCC(F)(F)F (stereo not drawn) [Compound 37]
Effect (class of control value) ([3]; in vivo): A (key: A: Not less than 80%; B: Not less than 50% to less than 80%; C: Less than 50%)
Control value ([1]; 60 ppm): 98
Control value ([4]; 60 ppm): 3

CCC(C)C(CNC(=O)c1ccc(C)cc1)NC(=O)OCC(F)(F)F (stereo not drawn) [Compound 25]
Effect (class of control value) ([3]; in vivo): A (key: A: Not less than 80%; B: Not less than 50% to less than 80%; C: Less than 50%)
Control value ([5]; in vivo): 95
Control value ([6]; 225 gai/10a): 5

CC(C)OC(=O)C(C(=O)OC(C)C)=C1SCCS1 [Isoprothiolane, reference compound]
pest or weed control at 400 ppm [1, 8]: 98%

O=C1OCc2c(Cl)c(Cl)c(Cl)c(Cl)c21 [Fthalide, reference compound]
pest or weed control at 300 ppm [1, 8]: 97%

C[C@@H](NC(=O)C(C#N)C(C)(C)C)c1ccc(Cl)cc1Cl (stereo partly drawn) [Diclocymet]
Control value ([2]; 1.5 gai/box): 97

CC(CNC(=O)c1cc2ccccc2o1)NC(=O)OCC(F)(F)F (stereo not drawn) [Compound 40]
Effect (class of control value) ([3]; in vivo): A (key: A: Not less than 80%; B: Not less than 50% to less than 80%; C: Less than 50%)
Control value ([1]; 60 ppm): 97
Control value ([4]; 60 ppm): 4

Cc1ccc(C(=O)NCC(NC(=O)OCC(F)(F)F)C2CCCC2)cc1 (stereo not drawn) [Compound 36]
Effect (class of control value) ([3]; in vivo): A (key: A: Not less than 80%; B: Not less than 50% to less than 80%; C: Less than 50%)

Cc1ccc(C(=O)NCC(NC(=O)OCC(F)(F)F)C(C)(C)C)cc1 (stereo not drawn) [Compound 24]
Effect (class of control value) ([3]; in vivo): A (key: A: Not less than 80%; B: Not less than 50% to less than 80%; C: Less than 50%)
Control value ([7]; 7.5 gai/box): 4
Control value ([1]; 60 ppm): 97
Control value ([4]; 60 ppm): 2
Control value ([6]; 225 gai/10a): 4

Cc1nc(C(F)(F)F)c(C(=O)Nc2c(Br)cc(OC(F)(F)F)cc2Br)s1 [Thifluzamide, reference compound]
Control value ([7]; 1 gai/box): 95
Control value ([6]; 60 gai/10a): 95

Cc1ccc(C(=O)NCC(NC(=O)OCCI)C(C)C)cc1 (stereo not drawn) [Compound 5]
Effect (class of control value) ([3]; in vivo): A (key: A: Not less than 80%; B: Not less than 50% to less than 80%; C: Less than 50%)

Cc1ccc(C(=O)NCC(NC(=O)OCCCl)C(C)C)cc1 (stereo not drawn) [Compound 3]
Effect (class of control value) ([3]; in vivo): A (key: A: Not less than 80%; B: Not less than 50% to less than 80%; C: Less than 50%)

O=C(Nc1ccccc1)N(Cc1ccc(Cl)cc1)C1CCCC1 [Pencycuron, reference compound]
Control value ([4]; 167 ppm): 95

CC(C)(C)C(CNC(=O)c1cc2ccccc2o1)NC(=O)OCC(F)(F)F (stereo not drawn) [Compound 31]
Effect (class of control value) ([3]; in vivo): A (key: A: Not less than 80%; B: Not less than 50% to less than 80%; C: Less than 50%)
Control value ([7]; 7.5 gai/box): 2
Control value ([1]; 60 ppm): 96
Control value ([4]; 60 ppm): 4
Control value ([6]; 225 gai/10a): 4

CO/C=C(/C(=O)OC)c1ccccc1Oc1cc(Oc2ccccc2C#N)ncn1 [Azoxystrobin, reference compound]
Control value ([4]; 80 ppm): 93

Cc1ccc(C(=O)NCC(NC(=O)OCCBr)C(C)C)cc1 (stereo not drawn) [Compound 4]
Effect (class of control value) ([3]; in vivo): A (key: A: Not less than 80%; B: Not less than 50% to less than 80%; C: Less than 50%)

Cc1cccc2sc3nncn3c12 [Tricyclazole, reference compound]
pest or weed control at 200 ppm [1, 8]: 99%
Control value ([2]; 2 gai/box): 96

CC(=O)Oc1c(C)c(C)nc2c(F)cc(C(C)(C)C)cc12 [Compound 105, reference compound]
pest or weed control at 300 ppm [1, 8]: 98%

N#Cc1ccccc1NC(=O)c1snc(Cl)c1Cl [Compound 104]
Control value ([2]; 1.5 gai/box): 98

Cc1ccc(C(=O)NCC(NC(=O)OC(C)C(F)(F)F)C(C)C)cc1 (stereo not drawn) [Compound 30]
Effect (class of control value) ([3]; in vivo): A (key: A: Not less than 80%; B: Not less than 50% to less than 80%; C: Less than 50%)
Control value ([5]; in vivo): 97
Control value ([6]; 225 gai/10a): 7

Cc1nn(C)c(Cl)c1C(=O)Nc1cccc2c1C(C)OC2(C)C (stereo not drawn) [Furametpyr, reference compound]
Control value ([7]; 2 gai/box): 96
Control value ([4]; 100 ppm): 95
Control value ([6]; 45 gai/10a): 96

Cc1ccc(C(=O)NCC(NC(=O)OCC(F)(F)C(F)(F)C(F)(F)F)C(C)C)cc1 (stereo not drawn) [Compound 13]
Effect (class of control value) ([3]; in vivo): A (key: A: Not less than 80%; B: Not less than 50% to less than 80%; C: Less than 50%)

CCC(CC)C(CNC(=O)c1ccc(C)cc1)NC(=O)OCC(F)(F)F (stereo not drawn) [Compound 39]
Effect (class of control value) ([3]; in vivo): A (key: A: Not less than 80%; B: Not less than 50% to less than 80%; C: Less than 50%)

Cc1ccc(C(=O)NCC(NC(=O)OC2CCCCC2F)C(C)C)cc1 (stereo not drawn) [Compound 16]
Effect (class of control value) ([3]; in vivo): A (key: A: Not less than 80%; B: Not less than 50% to less than 80%; C: Less than 50%)

Cc1ccc(NC(=O)c2snnc2C)cc1Cl [Tiadinil]
Control value ([2]; 6 gai/box): 95

Cc1ccc(C(=O)NCC(NC(=O)OCCCCl)C(C)C)cc1 (stereo not drawn) [Compound 10]
Effect (class of control value) ([3]; in vivo): A (key: A: Not less than 80%; B: Not less than 50% to less than 80%; C: Less than 50%)

CSCC(C)OC(=O)NC(CNC(=O)c1ccc(C)cc1)C(C)C (stereo not drawn) [Formula (17), reference compound]
Effect (class of control value) [3, 9]: C (Less than 50%)

CC(C)C(CNC(=O)c1nc2ccccc2s1)NC(=O)OCC(F)(F)F (stereo not drawn) [Compound 38]
Effect (class of control value) ([3]; in vivo): A (key: A: Not less than 80%; B: Not less than 50% to less than 80%; C: Less than 50%)
Control value ([1]; 60 ppm): 96
Control value ([4]; 60 ppm): 3

Cc1ccc(C(=O)NCC(NC(=O)OCCF)C(C)C)cc1 (stereo not drawn) [Compound 2]
Effect (class of control value) ([3]; in vivo): A (key: A: Not less than 80%; B: Not less than 50% to less than 80%; C: Less than 50%)

Cc1ccc(C(=O)NCC(NC(=O)OCCC(F)(F)C(F)(F)C(F)(F)C(F)(F)F)C(C)C)cc1 (stereo not drawn) [Compound 14]
Effect (class of control value) ([3]; in vivo): B (key: A: Not less than 80%; B: Not less than 50% to less than 80%; C: Less than 50%)

C[C@H]1O[C@H](O[C@H]2[C@H](O)[C@@H](O)[C@@H](O)[C@H](O)[C@@H]2O)[C@@H](N)C[C@@H]1NC(=N)C(=O)O [Kasugamycin, reference compound]
Control value ([1]; rice blast, spraying, 20 ppm): 97

Cc1ccc(C(=O)NC(CNC(=O)OC(C(F)(F)F)C(F)(F)F)C(C)C)cc1 (stereo not drawn) [Compound 8, N-(1,1,1,3,3,3-hexafluoro-2-propyloxycarbonyl)-N′-(4-methylbenzoyl)-3-methyl-1,2-butanediamine]
Effect (class of control value) [3, 9]: A (Not less than 80%)

C=CCOC1=NS(=O)(=O)c2ccccc21 [Probenazole]
Control value ([2]; 12 gai/box): 98

Cc1ccc(C(=O)NCC(NC(=O)Oc2ccc3ccccc3c2)C(C)C)cc1 (stereo not drawn) [Formula (16), reference compound]
Effect (class of control value) [3, 9]: C (Less than 50%)

CNC(=O)/C(=N/OC)c1ccccc1Oc1ccccc1 [Metominostrobin, reference compound]
Control value ([5]; rice blast, submerged application of granule, 150 gai/10a): 98
Control value ([6]; 150 gai/10a): 95

CC(C)Oc1cccc(NC(=O)c2ccccc2C(F)(F)F)c1 [Flutolanil, reference compound]
Control value ([4]; 250 ppm): 94
Control value ([6]; 210 gai/10a): 96
